Earlier results as cited in patent US8871750B2, “Use of aromatase inhibitors for endometrial thinning in preparation for surgical procedures on the endometrial cavity and uterus” (Wayne State University, priority 2004, dated 2014).

Columns and labels:
[1] = postmenopausal breast cancer treatment
endometrium [2] = details: small, randomized study
endometrium [3] = details: in vivo

Row | Compound | effect on endometrial thickness (endometrium [2]) | further results
1 | CCC1(c2ccc(N)cc2)CCC(=O)NC1=O (centres unmarked) [aminoglutethimide] | – | patients stopping treatment because of side effects (lethargy, rashes, nausea, fever) [1]: 8-15%
2 | CC(=O)O[C@]1(C(C)=O)CC[C@H]2[C@@H]3C=C(Cl)C4=CC(=O)[C@@H]5C[C@@H]5[C@]4(C)[C@H]3CC[C@@]21C [cyproterone acetate] | significant reduction | –
3 | CC(=O)O[C@]1(C(C)=O)CC[C@H]2[C@@H]3C[C@H](C)C4=CC(=O)CC[C@]4(C)[C@H]3CC[C@@]21C [medroxyprogesterone acetate] | no effect | –
4 | CC#C[C@]1(O)CC[C@H]2[C@@H]3CCC4=CC(=O)CCC4=C3[C@@H](c3ccc(N(C)C)cc3)C[C@@]21C [mifepristone] | – | effect on endometrium and menstrual bleeding (endometrium [3]): marked endometrial ECM breakdown and excessive menstrual bleeding
5 | C#C[C@]1(O)CC[C@H]2[C@@H]3CCC4=CC(=O)CC[C@@H]4[C@H]3CC[C@@]21C [norethisterone] | no effect | –
